Activity calls are given as the source filed them.
What was measured:
Format in all cases: functional
CCRF-CEM = assay: Cytotoxicity against human CCRF-CEM cells
HL-60 = assay: Cytotoxicity against human HL60 cells
K562 = assay: Cytotoxicity against human K562 cells
MOLT-4 = assay: Cytotoxicity against human MOLT4 cells
RPMI-8226 = assay: Cytotoxicity against human RPMI8226 cells
SR = assay: Cytotoxicity against human SR cells
COLO 205 = assay: Cytotoxicity against human COLO205 cells
HCC 2998 = assay: Cytotoxicity against human HCC2998 cells
HCT-116 = assay: Cytotoxicity against human HCT116 cells
HCT-15 = assay: Cytotoxicity against human HCT15 cells
HT-29 = assay: Cytotoxicity against human HT29 cells
KM12 = assay: Cytotoxicity against human KM12 cells
SW-620 = assay: Cytotoxicity against human SW620 cells
LOX IMVI = assay: Cytotoxicity against human LOXIMVI cells
Malme-3M = assay: Cytotoxicity against human MALME-3M cells
M14 = assay: Cytotoxicity against human M14 cells

Measured: Activity

C#C/C=C\[C@H](O)CCCCCCCCCCC/C=C\CCCCCCCCCCC[C@H](O)C#CC#CC#CCO
active: all assays above

C#CC(O)/C=C/CCCCCCCCC/C=C\C#CCCCCCCCCCC#CC#CC#CCO (configuration not stated)
active: all assays above

C#C[C@H](O)/C=C/CCCCCCCC/C=C\CCCCCCCC[C@H](O)C#CC#CC#CCO
active: all assays above

C#C[C@H](O)/C=C/CCCCCCCCC/C=C\C#CCCCCCCCC[C@H](O)C#CC#CC#CCO
active: all assays above

C#C[C@H](O)/C=C/CCCCCCCCC/C=C\C#CCCCCCC[C@H](O)C#CC#CC#CCO
active: all assays above

C#C[C@H](O)/C=C/CCCCCCCCCC/C=C\CCCCCCCC[C@H](O)C#CC#CC#CCO
active: all assays above

C#C[C@H](O)/C=C/CCCCCCCCCCCC/C=C\CCCCCCCCCCCCCC[C@H](O)C#CC#CC#CCO
active: all assays above

Reference: ChEMBL document CHEMBL1158270, “Triangulynes A-H and trangulynic acid, new cytotxic polyacetylenes from the marine sponge Pellina triangulata” (1996)
